Assay results: patent publication US20240366679A1, “METHOD FOR TREATING IMMUNE DISEASES USING CALCINEURIN INHIBITOR AND STEM CELLS” (KANGSTEM BIOTECH CO., LTD., priority 2021, published 2024)
Entries after “also recorded” stand apart in the source; their conditions may differ.

Tests used:
hUCB-MSC [1] = assay: MTT assay, cell viability of hUCB-MSC; assay type: cell-based; conditions: pimecrolimus various concentrations, 3 days, FIG. 2A
Method: First, the stem cells (hUCB-MSC) were cultured and treated with various concentrations of pimecrolimus for 3 days, and then the change in cell viability of hUCB-MSC were compared using the MTT assay (FIG. 2A).

hUCB-MSC [2] = assay: Proliferative capacity of hUCB-MSC; assay type: cell-based; conditions: pimecrolimus 0.01 to 100 ng/ml, 3 days; FIG. 2B
Method: Next, the stem cells (hUCB-MSC) were cultured and treated with various concentrations of pimecrolimus for 3 days, and then the change in proliferative capacity of hUCB-MSC were compared (FIG. 2B).

hUCB-MSC [3] = assay: Cell cycle analysis of hUCB-MSC; assay type: cell-based; conditions: pimecrolimus 0.01 to 100 ng/ml, 3 days; FIG. 2C
Method: Next, the stem cells (hUCB-MSC) were cultured and treated with various concentrations of pimecrolimus for 3 days, and then the change in cell cycle profile of hUCB-MSC were compared using cell cycle analysis (FIG. 2C).

hUCB-MSC [4] = assay: Cellular morphology of hUCB-MSC; assay type: cell-based; conditions: pimecrolimus 0.01 to 100 ng/ml, 3 days; FIG. 2D
Method: Next, the stem cells (hUCB-MSC) were cultured and treated with various concentrations of pimecrolimus for 3 days, and then the change in cellular morphology of hUCB-MSC were compared (FIG. 2D).

[5] = system: hUCB-MSC surface markers (CD45, CD34, CD36, CD105, CD29, CD73); assay: Flow cytometry of surface markers of hUCB-MSC; assay type: cell-based; conditions: pimecrolimus 100 ng/ml, 3 days, FIG. 2E
Method: Lastly, the stem cells (hUCB-MSC) were cultured and treated with 100 ng/ml of pimecrolimus for 3 days, and then the expression levels of surface markers (CD45, CD34, CD36, CD105, CD29, CD73) of hUCB-MSC were compared using flow cytometry. (FIG. 2E).

[6] = system: PBMC cells treated with Concanavalin A (ConA); assay: MLR analysis, immunosuppressive activity on ConA-treated PBMC; assay type: cell-based
Method: PBMC cells treated with Concanavalin A (ConA) were cultured and treated with pimecrolimus and mesenchymal stem cells (hUCB-MSC) individually or in combination, and then the immunosuppressive activity measured in each experimental group was compared (FIG. 3). In particular, PBMC cells that were not treated with ConA, not co-cultured with hUCB-MSC, and not treated with pimecrolimus were used as the negative control (NC), and as the positive control (PC) treated with ConA, PBMC cells that were not co-cultured with hUCB-MSC and not treated with pimecrolimus were used as the positive control (PC).
Specifically, PBMC cells treated with Concanavalin A (ConA) were cultured and treated with pimecrolimus and hUCB-MSC individually or in combination, and then the immunosuppressive activity measured in each experimental group was compared.
In particular, 10 experimental groups were set according to the combination pattern of pimecrolimus and hUCB-MSC (Table 1)

[7] = system: TGF-β expressed in hUCB-MSCs; assay: TGF-β ELISA of hUCB-MSC supernatant; assay type: cell-based, human; conditions: pimecrolimus 0.01 to 100 ng/ml, 72 hours, FIG. 4A
Method: (§1) Specifically, hUCB-MSCs were seeded in a 6-well cell culture plate at a density of 1.5×10^5 cells per well. After 24 hours of incubation, hUCB-MSCs were treated with pimecrolimus at various concentrations and further incubated for 72 hours. After the incubation was completed, the supernatant was collected by centrifugation and the thus-obtained supernatant was applied to Human […] Quantikine ELISA (R&D Systems, Minneapolis, MN, USA) and Human PGE2. Quantikine ELISA (R&D Systems) to analyze the expression level of TGF-β or prostaglandin E2 (PGE2) (FIGS. 4A and 4B).

[8] = system: PGE2 expressed in hUCB-MSCs; assay: PGE2 ELISA of hUCB-MSC supernatant; assay type: cell-based, human; conditions: pimecrolimus 0.01 to 100 ng/ml, 72 hours, FIG. 4B
Method: as §1

[9] = system: COX2 expressed in hUCB-MSCs; assay: Western blot of COX2 in hUCB-MSC lysate; assay type: cell-based; conditions: pimecrolimus 0.01 to 100 ng/ml, 72 hours, GAPDH internal control, FIG. 4C
Method: hUCB-MSCs treated with pimecrolimus were obtained according to the method of Example 3-2, centrifuged to collect the precipitated cells, and then disrupted to obtain cell lysate. Subsequently, Western blot analysis was performed using the thus-obtained cell lysate and COX2 antibodies (FIG. 4C). In particular, GAPDH was used as an internal control.

## CC[C@@H]1/C=C(\C)C[C@H](C)C[C@H](OC)[C@H]2O[C@@](O)(C(=O)C(=O)N3CCCC[C@H]3C(=O)O[C@H](/C(C)=C/[C@@H]3CC[C@H](Cl)[C@H](OC)C3)[C@H](C)[C@@H](O)CC1=O)[C@H](C)C[C@@H]2OC [pimecrolimus]
hUCB-MSC [1]
  change in cell viability of hUCB-MSC: did not change the cell viability
hUCB-MSC [2]
  change in proliferative capacity of hUCB-MSC: did not change the proliferative capacity
hUCB-MSC [3]
  change in cell cycle profile of hUCB-MSC: did not change the cell cycle profile
hUCB-MSC [4]
  change in cellular morphology of hUCB-MSC: did not change the cellular morphology
[5]
  expression levels of surface markers of hUCB-MSC: did not change the expression levels of surface markers
[6]; Example 3-1, treated individually or in combination, versus ConA positive control, FIG. 3
  immune activity of ConA-treated PBMC (immunosuppressive activity): the immune activity was suppressed
[6]; each treated alone, 3 to 7 days or 5 to 7 days (Experimental Groups 2 and 3; 5 and 9), FIG. 5A
  immunosuppressive activity, separate treatment: comparatively superior over the immunosuppressive activity of hUCB-MSCs
[7]
  level of TGF-β expressed in hUCB-MSCs: did not show a significant change
[8]
  level of PGE2 expressed in hUCB-MSCs: rapidly reduced in proportion to the treatment concentrations
[9]
  level of COX2 expressed in hUCB-MSCs: rapidly reduced in proportion to the treatment concentrations; also recorded: inhibit the expression of COX2
